We go through one compound from patent publication EP4578444A1, “APPLICATION OF BETA-CARYOPHYLLENE FOR TARGETED EPIGENETIC REGULATION AND POTENTIAL PREVENTION OF WATER-OSMOTIC CONDITIONS OF THE MUCOUS MEMBRANES AND EPITHELIA” (SkyLab AG, priority 2023, dated 2025).

For orientation: viability means a per cent measure of how many cells are alive, often set against a control. The EC70 is the point of the concentration-response curve where the effect stands at 70%.

Series [1] in a line: MTT cytotoxicity / cell viability of keratinocytes. Type of series: cell-based. The conditions noted are these: keratinocytes, throughout the selected concentration range (0.01-0.3 wt.%), threshold value of 70%, read-out: viability of skin and epithelial keratinocytes. As to the method:
(§1) Beta-caryophyllene was studied for cytotoxicity and assessed for viability of skin and mucous membrane keratinocytes to determine the maximum permissible concentration for external and local application.
(§2) Cell viability was determined colorimetrically using MTT stain (Sigma Chemical, St. Louis, Mo.). The preparation was treated for the test in dimethylsulphoxide culture medium and added to a 96-well plate at serial dilutions ranging from 1.000 to 0.0032 mg/mL using a dilution factor of 3.16. Pre-culture was carried out for 48 hours before the test. Then MTT was added to the culture at a concentration of 0.75 mg/mL (100 µl/well) and incubated for another 4 hours. The contents of the well were removed, and 100 µl of isopropanol was added to solubilize the formed formazan crystals. Absorbance was determined in each well at 570 nm using a Multiskan GO monochromator (Thermo Scientific, Finland). Cell viability was expressed as a percentage and calculated by the equation: % Viable cells = (Absorbance of evaluated product incubated cells)/(Control absorbance) × 100 [formula]
(§3) Three biological replicates were made. Statistical data processing was carried out to calculate the mean, standard deviation, and trend for each biological replicate. For the statistical evaluation ANOVA test was used allowing the measurement of variation of the results, comparing the data between all the groups. […]

The subject of series [2] is skin and mucous membrane keratinocytes. Nature of the series: MTT cytotoxicity / cell viability of keratinocytes. It counts as cell-based. The conditions noted are these: 70% cell survival. How it is done: as §1, §2, §3

Molecules are shown by their SMILES. ≈ marks a conversion by molar mass, not a printed value.

As for `C=C1CC/C=C(\C)CC[C@@H]2[C@@H]1CC2(C)C` [Beta-caryophyllene], the viability in series [1] was over 70%. The same compound yielded a 70% effect concentration (EC70) in series [2] of 316.5 µg/mL (≈ 1550 µM).
